Assays:
Karenia brevis = assay: Anti-phytoplankton activity against Karenia brevis assessed as change in chlorophyll a level measured after 72 hrs by fluorescence based analysis; assay type: functional, organism-based
[1] = Anti-phytoplankton activity against Skeletonema grethae assessed as reduction in chlorophyll a level measured after 72 hrs by fluorescence based analysis; assay type: functional, organism-based

Compound | IC50 (Karenia brevis) | IC50 [1]
N#Cc1c(-c2ccc(Cl)cc2)[nH]c(C(F)(F)F)c1Br | 1.35 µM | 13.1 µM
CC(=O)NCCc1c[nH]c2ccccc12 | > 200 µM | > 200 µM
CC(=O)NCCc1c[nH]c2cccc(F)c12 | > 200 µM | > 200 µM
CC(=O)N[C@H](C)c1nc(C(=O)NCCc2c[nH]c3cccc(F)c23)cs1 | > 200 µM | > 200 µM
CC(=O)N[C@H](C)c1nc(C(=O)NCCc2c[nH]c3cc(F)ccc23)cs1 | 28.7 µM | > 200 µM
CC(=O)c1nc(C(=O)NCCc2c[nH]c3cccc(F)c23)cs1 | > 200 µM | > 200 µM
CC(=O)c1nc(C(=O)NCCc2c[nH]c3ccc(F)cc23)cs1 | 186 µM | > 200 µM
CC(=O)c1nc(C(=O)NCCc2c[nH]c3cc(F)ccc23)cs1 | 107 µM | > 200 µM
CC(=O)N[C@H](C)c1nc(C(=O)NCCc2c[nH]c3ccc(F)cc23)cs1 | > 200 µM | > 200 µM
CC(=O)c1nc(C(=O)NCCc2c[nH]c3ccccc23)cs1 [BACILLAMIDE A] | > 200 µM | > 200 µM
CC(=O)N[C@H](C)c1nc(C(=O)NCCc2c[nH]c3ccccc23)cs1 [BACILLAMIDE C] | > 200 µM | > 200 µM
C[C@@H]1C[C@@H]([C@H](O)CC2CC(=O)NC(=O)C2)C(=O)[C@@H](C)C1 [CYCLOHEXIMIDE] | 0.55 µM | 0.5 µM
